Molecular target: T1, Leukotriene, Cysteinyl CysLT1 (Cavia porcellus, UniProt Q2NNR5)
T1 construct: from tissue; host or cells: guinea pig lung membrane
T1 sequence (Q2NNR5 1-340): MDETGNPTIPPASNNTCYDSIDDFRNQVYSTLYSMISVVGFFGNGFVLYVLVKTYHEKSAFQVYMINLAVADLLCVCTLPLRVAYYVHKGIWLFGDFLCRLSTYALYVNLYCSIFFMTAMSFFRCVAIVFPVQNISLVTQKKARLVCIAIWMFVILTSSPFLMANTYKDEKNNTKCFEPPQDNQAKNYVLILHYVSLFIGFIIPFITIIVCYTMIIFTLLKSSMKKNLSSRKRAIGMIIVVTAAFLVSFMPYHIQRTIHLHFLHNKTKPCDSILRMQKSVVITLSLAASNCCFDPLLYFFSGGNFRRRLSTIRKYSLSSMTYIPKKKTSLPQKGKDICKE
Test: receptor radio-ligand-binding assay (Tritiated LTD4 as the ligand), Guinea pig lung membrane
Conditions: 0.5 h, 0.2 nM 3H LTD4, Guinea pig lung membrane; for inhibition at 0.001 µM: 1 nM test compound, read-out: % Inhbition (in nM) 1; for inhibition at 0.003 µM: 3 nM test compound, read-out: % Inhbition (in nM) 3; for inhibition at 0.01 µM: 10 nM test compound, read-out: % Inhbition (in nM) 10
Experimental: The primary in-vitro biological screening for the compounds carried-out involving receptor radio-ligand-binding assay (Tritiated LTD4 as the ligand) by known methods described in literature [a). Mong et al. European Journal of Pharmacology (102); 1984 1-11b). Jones et al; Journal of Physiology & Pharmacology (73); 1994, 191-201 c). MDS Pharma Services: 250460 Leukotriene, Cysteinyl CysLT1]. Accordingly, Guinea pig lung membrane (100 ug) is incubated with 0.2 nM 3H LTD4 in presence of Reference Standard/Test item/Vehicle Control. Non Specific Binding is determined by incubating the membrane with 0.2 nM 3H LTD4 in presence of 1 uM of unlabeled LTD4. The samples are incubated at 26° C. for 30 minutes and are vacuum filtered on a membrane to separate the bound and free radioligand. The membrane is counted in a liquid scintillation counter to calculate the bound radioactivity. Specific Binding in Vehicle treated and Reference Standard/Test item treated set is compared to evaluate the % Inhibition values. Some of the compounds have shown >50% inhibition in the presence of ≦3 nano-molar concentration of the compounds of present invention as shown in the following table.

| inhibition at 0.001 µM [%] | inhibition at 0.003 µM [%] | inhibition at 0.01 µM [%] | SMILES |
| --- | --- | --- | --- |
| 38 | 54 | 74 | CCOC(COc1ccc(OC)cc1C(=O)O)c1cccc(/C=C/c2nc3ccccc3s2)c1 (stereo not drawn) [Ia.192, 2-{2-[3-((E)-2-Benzothiazol-2-yl-vinyl)-phenyl]-2-ethoxy-ethoxy}-5-methoxy-benzoic acid] |
| 32 | 60 | 74 | Cc1oc(=O)oc1COC(=O)c1ccccc1CCC1(c2cccc(/C=C/c3ccc4ccc(Cl)cc4n3)c2)OCCO1 [Ib.11] |
| 62 | 72 | 80 | CCOC(COc1ccc(OC)cc1C(=O)NS(C)(=O)=O)c1cccc(/C=C/c2ccc3ccc(Cl)cc3n2)c1 (stereo not drawn) [Ia.157, N-[2-(2-{3-[(E)-2-(7-Chloro-quinolin-2-yl)-vinyl]-phenyl}-2-ethoxy-ethoxy)-5-methoxybenzoyl]-methanesulfonamide] |
| 34 | 53 | 56 | CC1(C)COC(CCc2ccccc2C(=O)O)(c2cccc(/C=C/c3ccc4ccc(Cl)cc4n3)c2)OC1 [Ib.26] |
| 76 | 88 | 97 | CCOC(COc1ccc(OC)cc1C(=O)O)c1cccc(C#Cc2ccc3ccc(Cl)cc3n2)c1 (stereo not drawn) [Ia.199, 2-{2-[3-(7-Chloro-quinolin-2-ylethynyl)-phenyl]-2-ethoxy-ethoxy}-5-methoxy-benzoic acid] |
| 20 | 16 | 31 | CC(ON=C(CCc1ccccc1C(C)(C)O)c1cccc(/C=C/c2ccc3ccc(Cl)cc3n2)c1)C(=O)O (stereo not drawn) [Ib.148] |
| 33 | 41 | 62 | O=C(O)c1ccccc1CCC1(c2cccc(/C=C/c3ccc4ccc(Cl)cc4n3)c2)OCCO1 [Ib.4, 2-[2-(2-{3-[(E)-2-(7-Chloro-quinolin-2yl)-vinyl]phenyl}-[1,3]dioxolan-2yl)-ethyl]-benzoic acid] |
| 35 | 56 | 65 | CCN(CC)C(=O)c1ccccc1CCC(NC(=O)c1ccccc1C(=O)OC)c1cccc(/C=C/c2ccc3ccc(Cl)cc3n2)c1 (stereo not drawn) [Ia.48, N-[1-{3-[(E)-2-(7-Chloro-quinolin-2-yl)-vinyl]-phenyl}-3-(2-diethylcarbamoyl-phenyl)-propyl]-phthalamic acid methyl ester] |
| 28 | 52 | 82 | O=C(O)c1cc2c(cc1CCC1(c3cccc(/C=C/c4ccc5ccc(Cl)cc5n4)c3)OCCO1)OCCO2 [Ib.139] |
| 57 | 60 | 84 | C#CCO[C@H](COc1ccc(OC)cc1C(=O)O)c1cccc(/C=C/c2ccc3ccc(Cl)cc3n2)c1 [Ia.185, 2-((S)-2-{3-[(E)-2-(7-Chloro-quinolin-2-yl)-vinyl]-phenyl}-2-prop-2-ynyloxy-ethoxy)-5-methoxy-benzoic acid] |
| 43 | 64 | 65 | COC(=O)c1ccccc1CCC(NC(=O)C1=C(C(=O)O)CCC1)c1cccc(/C=C/c2ccc3ccc(Cl)cc3n2)c1 (stereo not drawn) [Ia.80, 2-(3-[(2-Carboxy-cyclopent-1-enecarbonyl)-amino]-3-{3-[(E)-2-(7-chloro-quinolin-2-yl)-vinyl]-phenyl}-propyl)-benzoic acid methyl ester] |
| 34 | 56 | 72 | O=C(N[C@@H](CCc1ccccc1C(=O)O)c1cccc(/C=C/c2ccc3ccc(Cl)cc3n2)c1)c1cccs1 [Ia.69, 2-{(S)-3-{3-[(E)-2-(7-Chloro-quinolin-2-yl)-vinyl]-phenyl}-3-[(thiophene-2-carbonyl)-amino]-propyl}-benzoic acid] |
| 6 | 38 | 53 | CCOc1ccc(CCC2(c3cccc(/C=C/c4ccc5ccc(Cl)cc5n4)c3)OCCO2)c(C(=O)O)c1 [Ib.86] |
| 32 | 56 | 74 | O=C(O)c1ccccc1OCC(OCCc1cccs1)c1cccc(/C=C/c2ccc3ccc(Cl)cc3n2)c1 (stereo not drawn) [Ia.143, 2-[2-{3-[(E)-2-(7-Chloro-quinolin-2-yl)-vinyl]-phenyl}-2-(2-thiophen-2-yl-ethoxy)-ethoxy]-benzoic acid] |
| 41 | 57 | 80 | O=C(O)c1cc2c(cc1CCC1(c3cccc(/C=C/c4ccc5ccc(Cl)cc5n4)c3)OCCCO1)OCO2 [Ib.133] |
| 50 | 69 | 73 | C#CCOC(COc1ccccc1C(=O)O)c1cccc(/C=C/c2ccc3ccc(Cl)cc3n2)c1 (stereo not drawn) [Ia.127, 2-(2-{3-[(E)-2-(7-Chloro-quinolin-2-yl)-vinyl]-phenyl}-2-prop-2-ynyloxy-ethoxy)-benzoic acid] |
| 48 | 68 | 85 | COc1cc(C(=O)O)c(CCC2(c3cccc(/C=C/c4ccc5ccc(Cl)cc5n4)c3)OCCO2)c(OC)c1OC [Ib.113] |
| 46 | 49 | 70 | CCOC(CSc1ncccc1C(=O)O)c1cccc(/C=C/c2ccc3ccc(Cl)cc3n2)c1 (stereo not drawn) [Ia.205, 2-(2-{3-[(E)-2-(7-Chloro-quinolin-2-yl)-vinyl]-phenyl}-2-ethoxy-ethylsulfanyl)-nicotinic acid] |
| 37 | 61 | 67 | CN(C(=O)c1ccco1)C(CCc1ccccc1C(=O)O)c1cccc(/C=C/c2ccc3ccc(Cl)cc3n2)c1 (stereo not drawn) [Ia.76, 2-{3-{3-[(E)-2-(7-Chloro-quinolin-2-yl)-vinyl]-phenyl}-3-[(furan-2-carbonyl)-methyl-amino]-propyl}-benzoic acid] |
| 14 | 20 | 60 | C#CCOc1ccc(CCC2(c3cccc(/C=C/c4ccc5ccc(Cl)cc5n4)c3)OCCO2)c(C(=O)O)c1 [Ib.93] |
| 67 | 78 | 86 | COc1ccc(C=CC2(c3cccc(/C=C/c4ccc5ccc(Cl)cc5n4)c3)OCCO2)c(C(=O)O)c1 [Ib.79] |
| 65 | 84 | 91 | O=C(O)c1cc(Cl)ccc1CCC1(c2cccc(/C=C/c3ccc4ccc(Cl)cc4n3)c2)OCCO1 [Ib.111] |
| 64 | 74 | 97 | O=C(O)c1ccccc1CCC1(c2cccc(/C=C/c3ccc4ccc(Cl)cc4n3)c2)OCCS1 (stereo not drawn) [Ib.59] |
| 31 | 41 | 49 | O=C(O)c1ccccc1SCC1(c2cccc(/C=C/c3ccc4ccc(Cl)cc4n3)c2)OCCO1 [Ib.42] |
| 56 | 77 | 86 | COc1ccc(CCC2(c3cccc(/C=C/c4ccc5ccc(Cl)cc5n4)c3)OCCO2)c(-c2nnn[nH]2)c1 [Ib.135] |
| 40 | 67 | 72 | O=C(O)c1ccccc1C(=O)NC(CCc1ccccc1C(=O)N1CCCC1)c1cccc(/C=C/c2ccc3ccc(Cl)cc3n2)c1 (stereo not drawn) [Ia.73, N-{1-{3-[(E)-2-(7-Chloro-quinolin-2-yl)-vinyl]-phenyl}-3-[2-(pyrrolidine-1-carbonyl)-phenyl]-propyl}-phthalamic acid] |
| 15 | 49 | 80 | O=C(O)c1ccc(C(=O)O)c(CCC2(c3cccc(/C=C/c4ccc5ccc(Cl)cc5n4)c3)OCCO2)c1 [Ib.142] |
| 58 | 81 | 86 | COc1cc(C(=O)O)c(CCC2(c3cccc(/C=C/c4ccc5ccc(Cl)cc5n4)c3)OCCCO2)cc1[N+](=O)[O-] [Ib.123] |
| 5 | 35 | 56 | O=C(O)c1ccccc1CCC(NC(=O)C(F)(F)F)c1cccc(/C=C/c2ccc3ccc(Cl)cc3n2)c1 (stereo not drawn) [Ia.12, 2-[3-{3-[(E)-2-(7-Chloro-quinolin-2-yl)-vinyl]-phenyl}-3-(2,2,2-trifluoro-acetylamino)-propyl]-benzoic acid] |
| 50 | 60 | 74 | O=C(N[C@H](CCc1ccccc1C(=O)O)c1cccc(/C=C/c2ccc3ccc(Cl)cc3n2)c1)c1ccco1 [Ia.54, 2-{(R)-3-{3-[(E)-2-(7-Chloro-quinolin-2-yl)-vinyl]-phenyl}-3-[(furan-2-carbonyl)-amino]-propyl}-benzoic acid] |
